According to patent US4912097A, “Novel 11 β-alkynylphenyl-10-nor-steroids” (Roussel Uclaf, priority 1986, dated 1990):
Where two headings read alike, the source gives them in different places.

Columns and labels:
[1] = target: T1, Gluoccocorticoid Receptor of the Rat Thymus (Rattus norvegicus, UniProt P06536); assay: Relative bonding affinity (ARL), glucocorticoid receptor of the rat thymus; format: binding, rat (male Sprague Dawley EOPS); details: for relative bonding affinity (ARL), Glucocorticoid: displacement of tritiated dexamethasone
T1 construct: The thymuses were removed and homogenized at 0° C; from tissue; host or cells: thymus of adrenalectomised male Sprague Dawley rats; high-speed supernatant of the homogenate
T1 sequence (P06536 1-795): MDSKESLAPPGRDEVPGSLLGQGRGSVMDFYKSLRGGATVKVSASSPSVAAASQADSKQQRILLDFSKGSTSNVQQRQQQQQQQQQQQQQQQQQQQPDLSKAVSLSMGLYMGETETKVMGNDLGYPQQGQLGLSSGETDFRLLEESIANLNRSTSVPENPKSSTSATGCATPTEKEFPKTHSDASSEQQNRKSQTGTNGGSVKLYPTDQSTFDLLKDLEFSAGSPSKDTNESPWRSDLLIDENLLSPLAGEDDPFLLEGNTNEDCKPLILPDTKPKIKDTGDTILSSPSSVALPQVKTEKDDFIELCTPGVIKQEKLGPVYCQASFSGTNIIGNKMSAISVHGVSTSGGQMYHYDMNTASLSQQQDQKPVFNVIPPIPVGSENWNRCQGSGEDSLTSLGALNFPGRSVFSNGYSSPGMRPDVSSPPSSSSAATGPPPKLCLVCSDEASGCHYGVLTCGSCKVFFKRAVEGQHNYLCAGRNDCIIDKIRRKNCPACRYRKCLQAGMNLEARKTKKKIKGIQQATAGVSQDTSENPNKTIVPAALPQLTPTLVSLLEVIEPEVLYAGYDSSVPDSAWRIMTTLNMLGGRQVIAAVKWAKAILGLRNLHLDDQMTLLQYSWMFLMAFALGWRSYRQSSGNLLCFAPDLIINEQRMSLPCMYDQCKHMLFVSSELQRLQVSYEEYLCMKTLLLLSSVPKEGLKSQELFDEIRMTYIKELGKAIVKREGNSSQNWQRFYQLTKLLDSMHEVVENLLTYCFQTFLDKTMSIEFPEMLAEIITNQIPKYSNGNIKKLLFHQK
Description: (§1) Study of the activity upon the hormonal receptors.
Male Sprague Dawley EOPS rats of 160 to 200 g were surrenalectomised and 4 to 8 days after this ablation, the animals were sacrificed. The thymuses were removed and homogenized at 0° C. in a 10 mM Tris, 0.25M saccharose, 2 mM dithiothreitol, HCl pH 7.4 buffer with the aid of a Potter polytetrafluoroethylene dish (1 g of tissue per 10 ml of TS). The homogenate was then ultracentrifuged (105,000×90 mn) at 0° C. Aliquots of the supernatent fluid thus obtained were incubated at 0° for a period (t) with a constant concentration (T) of tritiated dexamethasone in the presence of increasing concentrations (0-2500. 10^-9 M) either of cold dexamethasone, or of cold product to be tested. The concentration of tritiated dexamethasone bound (B) was then measured in each incubate by the technique of adsorption on dextran charcoal.
(§2) The calculation of the relative bonding affinity (ARL) was identical for all the receptors.
(§3) The 2 curves were plotted as follows: the percentage of the tritiated hormone bound B/T as a function of the logarithm of the concentration of the reference hormone cold and B/T as a function of the logarithm of the concentration of the product tested cold.
(§4) The straight line of the equation I50 =(B/T max+B/T min)/2. B/T max=percentage of the tritiated hormone bound for one incubation of this tritiated hormone at the concentration (T) was determined. B/T min=percentage of the tritiated hormone bound for one incubation of this tritiated hormone at the concentration (T) in the presence of a great excess of the cold hormone (2500·10^-9 M).
(§5) The intersections of the straight line I50 and of the curves make it possible to estimate the concentrations of the cold reference hormone (CH) and of the cold product tested (CX) which inhibits 50% of the bonding of the tritiated hormone on the receptor. The relative affinity of the bonding (ARL) of the product tested was determined by the equation [formula]

[2] = test system: thymocytes of surrenalectomised rats; assay: Antiglucocorticoidal activity: incorporation of tritiated uridine in thymocytes treated with dexamethasone; format: cell-based, rat; details: for opposition to the dexamethasone-caused diminution of incorporation of tritiated uridine (in words) / inhibition at 1 µM / inhibition at 0.1 µM / inhibition at 0.01 µM: 5·10^-8 M dexamethasone; for inhibition at 1 µM / inhibition at 0.1 µM / inhibition at 0.01 µM: Rattus norvegicus, Thymocyte, read-out: % inhibition of the effect of Dexamethasone; for inhibition at 1 µM: product tested 10^-6 M; for inhibition at 0.1 µM: product tested 10^-7 M; for inhibition at 0.01 µM: product tested 10^-8 M
Description: The technique employed was derived from the method described by Daune et al in Molecular Pharmacology, Vol. 13, 948-955 (1977) "The relationship between glucocorticold structure and effects upon thymocytes", for the thymocytes of the mouse. The thymocytes of surrenalectomised rats were incubated at 37° C. for 3 hours in a nutrient medium containing 5·10^-8 M of dexamethasone, in the presence or absence of a product to be studied at different concentrations. One added tritiated uridine, and continued the incubation for one hour. The incubates were cooled and treated with a 5% solution of trichloroacetic acid. After filtration on Whatman GF/A paper, and washing three times with a 5% trichloroacetic acid solution, the radioactivity retained by the filter was determined.

gestation in the rat = assay: Abortifacient activity in the rat; format: in vivo; details: 3 mg/kg orally on Day D 9 of gestation; sacrificed 72 hours after treatment
Description: Day D 1 of gestation was determined by the presence of spermatozoids in the vaginal smears and on Day D 9 of gestation, the product was administered orally in suspension in carboxymethyl cellulose containing 0.5% of Tween. The animals were sacrificed 72 hours after the treatment and the uterus was examined to determine the state of gestation.

[3] = target: T2, Progestogen Receptor of the Rabbit Uterus (Oryctolagus cuniculus, UniProt P06186); assay: Relative bonding affinity (ARL), progestogen receptor of the rabbit uterus; format: binding; details: for relative bonding affinity (ARL), Progestogen: displacement of tritiated R
T2 construct: The uteruses were removed, weighed and homogenized at 0° C; from tissue; host or cells: uterus of non-adult, estradiol-treated rabbits; high-speed supernatant of the homogenate
T2 sequence (P06186 1-930): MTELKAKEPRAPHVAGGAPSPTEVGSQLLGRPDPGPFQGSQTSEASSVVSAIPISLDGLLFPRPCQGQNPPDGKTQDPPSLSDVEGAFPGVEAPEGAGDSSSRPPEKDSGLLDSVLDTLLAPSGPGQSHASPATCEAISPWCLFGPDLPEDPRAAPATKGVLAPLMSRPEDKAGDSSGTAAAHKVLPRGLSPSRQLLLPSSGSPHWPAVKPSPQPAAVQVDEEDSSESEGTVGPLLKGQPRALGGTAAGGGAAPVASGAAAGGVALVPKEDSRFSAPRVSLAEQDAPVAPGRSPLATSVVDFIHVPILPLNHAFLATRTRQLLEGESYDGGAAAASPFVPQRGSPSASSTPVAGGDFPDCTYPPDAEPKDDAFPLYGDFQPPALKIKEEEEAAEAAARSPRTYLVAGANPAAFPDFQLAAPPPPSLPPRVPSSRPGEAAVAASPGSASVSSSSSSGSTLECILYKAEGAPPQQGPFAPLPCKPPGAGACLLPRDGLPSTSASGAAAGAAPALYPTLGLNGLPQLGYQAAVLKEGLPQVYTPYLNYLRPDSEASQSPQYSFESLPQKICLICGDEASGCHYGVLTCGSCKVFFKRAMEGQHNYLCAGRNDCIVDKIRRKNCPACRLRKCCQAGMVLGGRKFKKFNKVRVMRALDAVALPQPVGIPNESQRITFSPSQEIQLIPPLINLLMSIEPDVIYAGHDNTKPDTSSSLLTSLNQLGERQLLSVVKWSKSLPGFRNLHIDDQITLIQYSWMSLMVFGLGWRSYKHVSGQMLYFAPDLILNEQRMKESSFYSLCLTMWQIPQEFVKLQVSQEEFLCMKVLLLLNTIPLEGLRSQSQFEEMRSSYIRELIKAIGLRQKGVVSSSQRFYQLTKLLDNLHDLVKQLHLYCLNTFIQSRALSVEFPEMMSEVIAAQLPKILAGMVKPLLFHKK
Description: as §1
Non-adult rabbits of about 1 kg are given a cutaneous application of 25 μg of estradiol and 5 days after this treatment, the animals were sacrificed. The uteruses were removed, weighed and homogenized at 0° C. with the aid of a Potter polytertrafluoroethylene dish in a buffered TS solution ([…], HCl pH 7.4) (1 g of tissue per 50 ml of TS). The homogenate was then ultracentrifuged (105,000 g×90 mm) at 0° C. Aliquots of the supernatent fluid thus obtained were incubated at 0° C. for a period (t) with a constant concentration (T) of tritiated Product R (17, 21-dimethyl-19-nor-Δ^-4,9 -pregnadien-3,20-dione) in the presence of increasing concentrations (0-2500. 10^-9 M) either of R cold, or of progesterone cold, or of the product to be tested cold. The concentration of tritiated R bound (B) was then measured in each incubate by the technique of adsorbtion on dextran charcoal.
as §2, §3, §4, §5

[4] = 37° C., 3 hours + 1 hour tritiated uridine

| Structure (SMILES) | affinity for the glucocorticoid receptor (in words) [1] | relative bonding affinity (ARL), Glucocorticoid ([1]; time of incubation at 0°: 4H) | relative bonding affinity (ARL), Glucocorticoid ([1]; time of incubation at 0°: 24H) | opposition to the dexamethasone-caused diminution of incorporation of tritiated uridine (in words) [2] | inhibition at 1 µM [2, 4] [%] | inhibition at 0.1 µM [2, 4] [%] | inhibition at 0.01 µM [2, 4] [%] | abortion (state of gestation) (gestation in the rat) | affinity for the progestogen receptor (in words) [3] | relative bonding affinity (ARL), Progestogen ([3]; time of incubation at 0°: 2H) | relative bonding affinity (ARL), Progestogen ([3]; time of incubation at 0°: 24H) | incorporation of tritiated uridine (in words) ([2]; effect of glucocorticoid alone) | inhibition at 1 µM ([2]; symbol explained in footnote) [%] |
| --- | --- | --- | --- | --- | --- | --- | --- | --- | --- | --- | --- | --- | --- |
| C#Cc1ccc([C@H]2C[C@@]3(C)[C@@H](CC[C@@]3(O)C#CCl)[C@@H]3CCC4=CC(=O)CC[C@]45O[C@]235)cc1 [Example 8, 17α-chloroethynyl-9α,10α-epoxy-11β-(4-ethynylphenyl)-17-Δ^4-estraen-17β-ol-3-one] | very marked affinity | 175 | 233 | oppose this effect | 77 | 37 | 7 | complete abortion in all the animals | very marked affinity | 38 | 285 | – | – |
| C[C@@H]1C[C@H]2[C@@H]3CCC4=CC(=O)C=C[C@]4(C)[C@@]3(F)[C@@H](O)C[C@]2(C)[C@@]1(O)C(=O)CO [dexamethasone, reference compound] | – | – | – | – | – | – | – | – | – | – | – | cause a diminution of the incorporation of tritiated uridine | – |
| C#Cc1ccc([C@H]2C[C@@]3(C)[C@@H](CC[C@@]3(O)CC=C)[C@@H]3CCC4=CC(=O)CCC4=C32)cc1 [Example 4, 11β-(4-ethynylphenyl)-17α-allyl-Δ^4,9-estradien-17β-ol-3-one] | very marked affinity | 65 | 57 | oppose this effect | 99 | 71 | 46 | complete abortion in all the animals | very marked affinity | 41 | 124 | – | – |
| C#Cc1ccc([C@H]2C[C@@]3(C)[C@@H](CC[C@@]3(O)C#CCl)[C@@H]3CCC4=CC(=O)CCC4=C32)cc1 [Example 5, 17α-(chloroethynyl)-11β-(4-ethynylphenyl)-Δ^4,9-estradien-17β-ol-3-one] | very marked affinity | 84 | 153 | oppose this effect | – | 84 | 47 | complete abortion in all the animals | very marked affinity | 51 | 325 | – | 100 |
| C#Cc1ccc([C@H]2C[C@@]3(C)[C@@H](CC[C@@]3(O)C#CC)[C@@H]3CCC4=CC(=O)CCC4=C32)cc1 [Example 3, 11β-(4-ethynylphenyl)-17α-(1-propynyl)-Δ^4,9-estradien-17β-ol-3-one] | very marked affinity | 107 | 124 | – | – | – | – | complete abortion in all the animals | very marked affinity | 44 | 167 | – | – |
